IC50 data for 13 compounds are collected here from US11739098B2 (BRISTOL-MYERS SQUIBB COMPANY, priority 2017, dated 2023).

Each structure is given as a SMILES string.

Format in all cases: cell-based
The target of one test is T1, human TLR7 (Homo sapiens, UniProt Q9NYK1).
T1 construct: host or cells: HEK-Blue cells (HEK293-derived reporter line)
T1 sequence (Q9NYK1 27-1049): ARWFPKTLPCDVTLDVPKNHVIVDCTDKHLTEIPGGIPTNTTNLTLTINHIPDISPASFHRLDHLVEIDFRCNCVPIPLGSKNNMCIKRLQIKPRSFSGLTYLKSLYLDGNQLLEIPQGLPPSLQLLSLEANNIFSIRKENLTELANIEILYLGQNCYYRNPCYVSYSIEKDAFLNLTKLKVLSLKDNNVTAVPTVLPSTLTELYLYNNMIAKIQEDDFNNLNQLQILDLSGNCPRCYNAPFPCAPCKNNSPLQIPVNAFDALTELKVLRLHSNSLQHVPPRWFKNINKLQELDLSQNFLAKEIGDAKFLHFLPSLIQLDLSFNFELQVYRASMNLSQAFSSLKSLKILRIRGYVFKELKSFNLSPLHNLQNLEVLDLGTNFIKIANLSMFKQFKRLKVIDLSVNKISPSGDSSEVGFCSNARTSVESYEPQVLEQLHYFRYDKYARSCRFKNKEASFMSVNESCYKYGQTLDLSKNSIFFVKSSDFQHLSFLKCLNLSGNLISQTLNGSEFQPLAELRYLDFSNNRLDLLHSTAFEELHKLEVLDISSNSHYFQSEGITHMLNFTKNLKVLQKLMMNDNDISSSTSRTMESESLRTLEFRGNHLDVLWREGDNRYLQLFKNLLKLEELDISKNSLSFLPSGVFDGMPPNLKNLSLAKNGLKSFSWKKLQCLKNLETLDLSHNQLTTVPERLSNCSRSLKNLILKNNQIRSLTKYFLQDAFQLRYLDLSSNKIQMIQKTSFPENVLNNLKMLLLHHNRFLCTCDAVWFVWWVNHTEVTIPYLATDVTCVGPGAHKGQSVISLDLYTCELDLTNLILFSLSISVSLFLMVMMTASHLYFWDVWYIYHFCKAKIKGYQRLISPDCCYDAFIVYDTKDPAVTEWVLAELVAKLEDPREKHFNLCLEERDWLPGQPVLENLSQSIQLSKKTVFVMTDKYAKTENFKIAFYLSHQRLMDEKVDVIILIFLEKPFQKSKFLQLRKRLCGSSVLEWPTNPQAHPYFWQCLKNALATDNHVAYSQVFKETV
In words: TLR7 inhibition reporter assay (HEK-Blue cells, SEAP reporter, gardiquimod stimulation). Conditions: HEK-Blue cells overexpressing human TLR7, SEAP reporter, gardiquimod 7.5 μM. The protocol: (§1) TLR7/8/9 Inhibition Reporter Assays
(§2) HEK-Blue™-cells (Invivogen) overexpressing human TLR7, TLR8 or TLR9 receptors were used for screening inhibitors of these receptors using an inducible SEAP (secreted embryonic alkaline phosphatase) reporter gene under the control of the IFN-β minimal promoter fused to five NF-κB and AP-1-binding sites. Briefly, cells are seeded into Greiner 384 well plates (15000 cells per well for TLR7, 20,000 for TLR8 and 25,000 for TLR9) and then treated with test compounds in DMSO to yield a final dose response concentration range of 0.05 nM-50 μM. After a 30 minute compound pre-treatment at room temperature, the cells are then stimulated with a TLR7 ligand (gardiquimod at a final concentration of 7.5 μM), TLR8 ligand (R848 at a final concentration of 15.9 μM) or TLR9 ligand (ODN2006 at a final concentration of 5 nM) to activate NF-κB and AP-1 which induce the production of SLAP After a 22 hour incubation at […], SLAP levels are determined with the addition of HLK-Blue™ Detection reagent (Invivogen), a cell culture medium that allows for detection of SLAP, according to manufacturer's specifications. The percent inhibition is determined as the […] in the HEK-Blue signal present in wells treated with agonist plus DMSO alone compared to wells treated with a known inhibitor.

In another test the target is T2, human TLR8 (Homo sapiens, UniProt Q9NR97).
T2 construct: host or cells: HEK-Blue cells (HEK293-derived reporter line)
T2 sequence (Q9NR97 27-1041): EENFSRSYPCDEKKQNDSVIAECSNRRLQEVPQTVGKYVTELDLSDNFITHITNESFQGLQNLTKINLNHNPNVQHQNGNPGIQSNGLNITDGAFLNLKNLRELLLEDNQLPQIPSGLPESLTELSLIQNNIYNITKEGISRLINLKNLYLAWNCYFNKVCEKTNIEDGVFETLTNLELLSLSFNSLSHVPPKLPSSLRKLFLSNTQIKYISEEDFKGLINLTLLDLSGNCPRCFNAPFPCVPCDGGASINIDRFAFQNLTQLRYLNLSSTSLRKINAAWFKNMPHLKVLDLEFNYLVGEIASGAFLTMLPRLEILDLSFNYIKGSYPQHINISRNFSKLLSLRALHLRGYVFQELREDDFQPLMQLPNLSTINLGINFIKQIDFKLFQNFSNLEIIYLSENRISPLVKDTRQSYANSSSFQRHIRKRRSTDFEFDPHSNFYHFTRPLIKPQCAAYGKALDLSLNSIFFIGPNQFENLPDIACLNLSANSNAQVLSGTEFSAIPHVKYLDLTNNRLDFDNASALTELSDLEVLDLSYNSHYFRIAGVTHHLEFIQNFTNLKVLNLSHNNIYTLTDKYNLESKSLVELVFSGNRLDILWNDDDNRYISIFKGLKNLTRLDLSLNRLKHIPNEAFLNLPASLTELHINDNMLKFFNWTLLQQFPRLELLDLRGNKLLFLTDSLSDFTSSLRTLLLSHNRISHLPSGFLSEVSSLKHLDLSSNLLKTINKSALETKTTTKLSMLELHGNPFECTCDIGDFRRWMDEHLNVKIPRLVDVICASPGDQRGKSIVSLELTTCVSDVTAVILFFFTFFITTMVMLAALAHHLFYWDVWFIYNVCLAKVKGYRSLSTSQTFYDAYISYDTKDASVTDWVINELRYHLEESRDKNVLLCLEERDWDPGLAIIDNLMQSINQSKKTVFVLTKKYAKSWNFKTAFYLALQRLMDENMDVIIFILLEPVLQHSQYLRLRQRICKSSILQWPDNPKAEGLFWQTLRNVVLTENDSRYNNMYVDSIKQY
The experiment in a line: TLR8 inhibition reporter assay (HEK-Blue cells, SEAP reporter, R848 stimulation). Conditions: HEK-Blue cells overexpressing human TLR8, SEAP reporter, R848 15.9 μM. The procedure: as §1, §2

Another test has as its target T3, human TLR9 (Homo sapiens, UniProt Q9NR96).
T3 construct: host or cells: HEK-Blue cells (HEK293-derived reporter line)
T3 sequence (Q9NR96 26-1032): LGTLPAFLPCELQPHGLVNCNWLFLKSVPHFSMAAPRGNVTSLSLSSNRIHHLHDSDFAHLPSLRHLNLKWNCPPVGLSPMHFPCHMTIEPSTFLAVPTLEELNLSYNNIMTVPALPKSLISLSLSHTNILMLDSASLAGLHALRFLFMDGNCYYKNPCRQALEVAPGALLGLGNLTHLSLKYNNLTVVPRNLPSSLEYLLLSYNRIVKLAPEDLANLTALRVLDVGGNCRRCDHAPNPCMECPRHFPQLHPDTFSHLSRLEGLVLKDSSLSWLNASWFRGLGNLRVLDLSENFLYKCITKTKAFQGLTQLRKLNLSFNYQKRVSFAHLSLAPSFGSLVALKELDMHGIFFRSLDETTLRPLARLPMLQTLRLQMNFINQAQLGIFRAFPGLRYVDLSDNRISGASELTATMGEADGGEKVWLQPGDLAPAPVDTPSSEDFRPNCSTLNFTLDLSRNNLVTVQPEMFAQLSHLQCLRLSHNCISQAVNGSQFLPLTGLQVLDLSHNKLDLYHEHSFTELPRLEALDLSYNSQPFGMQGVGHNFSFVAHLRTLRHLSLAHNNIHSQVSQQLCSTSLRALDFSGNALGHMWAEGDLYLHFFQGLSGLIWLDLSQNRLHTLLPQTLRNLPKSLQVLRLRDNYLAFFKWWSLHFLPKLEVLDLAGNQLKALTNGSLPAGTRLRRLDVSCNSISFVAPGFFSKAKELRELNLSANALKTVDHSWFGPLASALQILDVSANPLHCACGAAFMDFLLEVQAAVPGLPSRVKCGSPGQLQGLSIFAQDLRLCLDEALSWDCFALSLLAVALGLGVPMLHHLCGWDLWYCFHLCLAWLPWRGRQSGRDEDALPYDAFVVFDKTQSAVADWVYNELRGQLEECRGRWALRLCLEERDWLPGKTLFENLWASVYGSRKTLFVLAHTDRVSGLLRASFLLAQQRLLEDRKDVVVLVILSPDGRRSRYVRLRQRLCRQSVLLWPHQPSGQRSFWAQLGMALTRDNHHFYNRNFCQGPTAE
In words: TLR9 inhibition reporter assay (HEK-Blue cells, SEAP reporter, ODN2006 stimulation). The conditions noted are these: HEK-Blue cells overexpressing human TLR9, SEAP reporter, ODN2006 5 nM. The procedure: as §1, §2

For `CC(C)c1c(-c2c[nH]c3ncncc23)[nH]c2ccc(C3CCNCC3)cc12` [Example 13, 5-(3-isopropyl-5-(piperidin-4-yl)-1H-indol-2-yl)-7H-pyrrolo[2,3-d]pyrimidine], the IC50 against human TLR7 was less than 100 nM; at human TLR8, less than 100 nM; at human TLR9, 100 to 1000 nM.

Regarding `CC(C)c1c(-c2c[nH]c3ccncc23)[nH]c2ccc(C3CCNCC3)cc12` [Example 14, 3-(3-isopropyl-5-(piperidin-4-yl)-1H-indol-2-yl)-1H-pyrrolo[3,2-c]pyridine], the values for the IC50 at human TLR7, on human TLR8 and against human TLR9 were more than 3130 nM, more than 3130 nM and 100 to 1000 nM, respectively.

As to `CC(C)c1c(-c2c[nH]c3cnccc23)[nH]c2ccc(C3CCNCC3)cc12` [Example 15, 3-(3-isopropyl-5-(piperidin-4-yl)-1H-indol-2-yl)-1H-pyrrolo[2,3-c]pyridine], the IC50 against human TLR7 lay within 100 to 1000 nM; against human TLR8 it was 1000 to 50000 nM; against human TLR9, 100 to 1000 nM.

As to `CC(C)c1c(-c2cnc3[nH]c(=O)oc3c2)[nH]c2ccc(C3CCNCC3)cc12` [Example 16, 6-(3-isopropyl-5-(piperidin-4-yl)-1H-indol-2-yl)oxazolo[4,5-b]pyridin-2(3H)-one], the IC50 is 100 to 1000 nM at human TLR7, more than 3130 nM against human TLR8 and 1000 to 50000 nM on human TLR9.

`CC(C)c1c(-c2c[nH]c3ncccc23)[nH]c2ccc(C3CCNCC3)cc12` [Example 17, 3-(3-isopropyl-5-(piperidin-4-yl)-1H-indol-2-yl)-1H-pyrrolo[2,3-b]pyridine]: the IC50 against human TLR7 is less than 100 nM; against human TLR8, less than 100 nM; on human TLR9, 100 to 1000 nM.

For `CC(C)c1c(-c2n[nH]c3ncccc23)[nH]c2ccc(C3CCNCC3)cc12` [Example 18, 3-(3-isopropyl-5-(piperidin-4-yl)-1H-indol-2-yl)-1H-pyrazolo[3,4-b]pyridine], the IC50 against human TLR7 is less than 100 nM; at human TLR8, less than 100 nM; at human TLR9, 1000 to 50000 nM.

With `CC(C)c1c(-c2c[nH]c3cccnc23)[nH]c2ccc(C3CCNCC3)cc12` [Example 19, 3-(3-isopropyl-5-(piperidin-4-yl)-1H-indol-2-yl)-1H-pyrrolo[3,2-b]pyridine], the IC50 at human TLR7 lay within 100 to 1000 nM; at human TLR8 it was 1000 to 50000 nM; against human TLR9, 100 to 1000 nM.

On to `CC(C)c1c(-c2coc3cccnc23)[nH]c2ccc(C3CCNCC3)cc12` [Example 20, 3-(3-isopropyl-5-(piperidin-4-yl)-1H-indol-2-yl)furo[3,2-b] pyridine], for which the IC50 against human TLR7 is more than 3130 nM; at human TLR8, more than 3130 nM; against human TLR9, 1000 to 50000 nM.

Consider `CC(C)c1c(-c2n[nH]c3nc[nH]c(=O)c23)[nH]c2ccc(C3CCNCC3)cc12` [Example 21, 3-(3-isopropyl-5-(piperidin-4-yl)-1H-indol-2-yl)-1,5-dihydro-4H-pyrazolo[3,4-d]pyrimidin-4-one], for which the IC50 against human TLR7 lay in the range of 1000 to 50000 nM; against human TLR8, 100 to 1000 nM; on human TLR9, 1000 to 50000 nM.

Turning to `CC(C)c1c(-c2ccnc3cccnc23)[nH]c2ccc(C3CCNCC3)cc12` [Example 22, 4-(3-isopropyl-5-(piperidin-4-yl)-1H-indol-2-yl)-1,5-naphthyridine], the IC50 against human TLR7 was 100 to 1000 nM; against human TLR8, less than 100 nM; on human TLR9, 1000 to 50000 nM.

As to `Cc1c(-c2ccnc3cc[nH]c23)[nH]c2ccc(C3CCNCC3)cc12` [Example 23, 7-(3-methyl-5-(piperidin-4-yl)-1H-indol-2-yl)-1H-pyrrolo[3,2-b]pyridine], the IC50 on human TLR7 was less than 100 nM; on human TLR8, less than 100 nM; against human TLR9, 100 to 1000 nM.

Regarding `CC(C)c1c(-c2ccc3nc(N)cn3n2)[nH]c2ccc(C3CCNCC3)cc12` [Example 24, 6-(3-isopropyl-5-(piperidin-4-yl)-1H-indol-2-yl)imidazo[1,2-b]pyridazin-2-amine], the IC50 against human TLR7, on human TLR8 and against human TLR9 was 1000 to 50000 nM in each case.

Regarding `CCc1c(-c2cnc3cncc(OC)n23)[nH]c2ccc(C3CCNCC3)cc12` [Example 25, 3-(3-ethyl-5-(piperidin-4-yl)-1H-indol-2-yl)-5-methoxyimidazo[1,2-a]pyrazine], the results for the IC50 at human TLR7, at human TLR8 and on human TLR9 were 1000 to 50000 nM, 1000 to 50000 nM and 100 to 1000 nM, respectively.
